From patent US8008506B2, “Indazole compounds” (priority 2008, dated 2011)
Values after ≈ are worked out from the molar mass of the structure shown.

Tests used:
[1] = Test Example 12: solubility in physiological saline; type: physicochemical; conditions: saline or isotonic, thermodynamic from solid, 37° C., one hour, 1 mg/mL nominal
Method: A test compound is precisely weighed to 500 μg, and a hydrochloric acid buffer solution at pH 1.2 is added thereto to a concentration of 1 mg/mL. The solution is shaken at 37° C. for one hour. After the shaking, the entire amount of the solution is transferred into a filter tube, and the solution is filtered by centrifugation. The filtrate is analyzed by HPLC, and the solubility of the test compound is determined by dividing the peak area value of the filtrate by the peak area value of the standard solution.
Test on Solubility in Physiological Saline
The solubility of a test compound is determined by performing the same test as that performed in Test Example 11, except that the hydrochloric acid buffer solution at pH 1.2 is changed to physiological saline.

[2] = target: T1, human β3 adrenergic receptor (Homo sapiens, UniProt P13945); assay: Test Example 1-A: human β3 adrenergic receptor agonist activity (cAMP EIA, transfected CHO cells, 24-well); type: cell-based; conditions: Table 1; for EC50: Test Example 1-A; for β3 receptor I.A.: maximum response to isoproterenol taken as 100%
T1 construct: the full length human β3 gene is obtained from a human genomic library; expressed in transfected cells; host or cells: CHO (Chinese Hamster Ovary) cells, pcDNA3, geneticin selection
Method: Measurement of Human β3 Adrenergic Receptor Agonist Activity
The measurement of human β3 adrenergic receptor agonist activity is carried out using CHO (Chinese Hamster Ovary) cells transfected with pcDNA3 (manufactured by Invitrogen, Inc.) to which human β3 gene has been inserted. […] This human β3 cDNA fragment is used as a probe, and the full length human β3 gene is obtained from a human genomic library (manufactured by Clontech Laboratories, Inc.). The above cells are cultured in Ham's F-12 medium containing 10% fetal bovine serum and 400 μg/ml geneticin (manufactured by Invitrogen, Inc.). These cells are seeded on a 24-well plate to a concentration of 1×10^5 cells/well, and after being cultured for about 20 hours, the cells are left to stand in serum-free Ham's F-12 medium for 2 hours. A test compound is initially dissolved in DMSO, and then is diluted stepwise with Ham's F-12 containing 20 mmol/L HEPES, 1 mmol/L isobutylmethylxanthine, and 1 mmol/L ascorbic acid. The dilution is added to the cells. After the cells are cultured for 30 minutes, and then the medium is removed, followed by addition of 0.1 ml of 1 N NaOH to the cells. The cells are left to stand for 20 minutes, and then are added with 0.1 ml of 1 N acetic acid and are stirred. The resulting cell lysate is centrifuged, and then is subjected to quantification of cAMP with cAMP EIA kit (manufactured by Cayman Chemical Co.).

T1 sequence (P13945 whole entry): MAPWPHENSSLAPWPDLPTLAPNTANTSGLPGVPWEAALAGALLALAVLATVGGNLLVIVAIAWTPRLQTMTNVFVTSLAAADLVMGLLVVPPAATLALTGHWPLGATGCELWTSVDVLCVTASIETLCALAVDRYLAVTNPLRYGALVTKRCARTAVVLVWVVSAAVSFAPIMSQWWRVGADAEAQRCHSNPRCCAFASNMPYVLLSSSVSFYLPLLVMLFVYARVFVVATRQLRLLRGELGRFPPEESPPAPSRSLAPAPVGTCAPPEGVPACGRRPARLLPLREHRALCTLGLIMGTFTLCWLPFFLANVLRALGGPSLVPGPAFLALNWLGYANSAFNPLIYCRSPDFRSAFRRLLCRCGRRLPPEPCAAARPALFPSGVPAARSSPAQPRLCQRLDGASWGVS

Row | SMILES | solubility at 1 h [1] | EC50 [2] | β3 receptor I.A. [2]
1 | CC(C)c1n[nH]c2cc(OCCNC[C@H](O)c3cccc(NS(C)(=O)=O)c3)ccc12 [Example 1, (R)-N-(3-(1-hydroxy-2-(2-(3-isopropylindazol-6-yloxy)ethylamino)ethyl)phenyl)methanesulfonamide] | ≥ 1000 µg/mL |  | 
2 | CCCc1n[nH]c2cc(OCCNC[C@H](O)c3cccc(NS(C)(=O)=O)c3)ccc12 [Example 3, (R)-N-(3-(1-hydroxy-2-(2-(3-propylindazol-6-yloxy)ethylamino)ethyl)phenyl)methanesulfonamide] |  | 29 nM | 77%
3 | CCc1n[nH]c2cc(OCCNC[C@H](O)c3cccc(NS(C)(=O)=O)c3)ccc12 [Example 2, (R)-N-(3-(1-hydroxy-2-(2-(3-ethylindazol-6-yloxy)ethylamino)ethyl)phenyl)methanesulfonamide] | ≥ 1000 µg/mL | 29 nM | 77%

Other lines, results leading:

Row | solubility at 1 h [1] | EC50 [2] | β3 receptor I.A. [2] | SMILES
4 | ≥ 1000 µg/mL | 51 nM | 75% | CN(C)C(=O)CCc1n[nH]c2cc(OCCNC[C@H](O)c3cccc(NS(C)(=O)=O)c3)ccc12 [Example 5, (R)-3-(6-(2-(2-hydroxy-2-(3-(methylsulfonamido)phenyl)ethylamino)ethoxy)-indazol-3-yl)-N,N-dimethylpropanamide]
5 | 993 µg/mL (≈ 2290 µM) | 7.4 nM | 82% | COCc1n[nH]c2cc(OCCNC[C@H](O)c3cccc(NS(C)(=O)=O)c3)ccc12 [Example 6, (R)-N-(3-(1-hydroxy-2-(2-(3-methoxymethylindazol-6-yloxy)ethylamino)ethyl)phenyl)methanesulfonamide]
6 | 932 µg/mL (≈ 2030 µM) |  |  | CS(=O)(=O)Nc1cccc([C@@H](O)CNCCOc2ccc3c(C(F)(F)F)n[nH]c3c2)c1 [Example 4, (R)-N-(3-(1-hydroxy-2-(2-(3-trifluoromethylindazol-6-yloxy)ethylamino)ethyl)phenyl)methanesulfonamide]
